Measurements from article PMC10614203, “Synthesis, Structure–Activity Relationships, Radiofluorination, and Biological Evaluation of [^18F]RM365, a Novel Radioligand for Imaging the Human Cannabinoid Receptor Type 2 (CB2R) in the Brain with PET” (Journal of Medicinal Chemistry, 2023).
Values joined by “and” are separate entries in the source; they are usually repeats but may differ in a detail not shown here. Equal entries are not always repeated. “Also recorded” adds a separate entry of the source. Where two headings read alike, the source gives them in different places.

Experiments:
[1] = target: T1, hCB1R (Homo sapiens, UniProt P21554); assay: Radioligand displacement assay, [3H]SR141716A from homogenates of hCB1R-CHO cells; type: binding
T1 construct: host or cells: CHO cells, stably transfected
T1 sequence (P21554 whole entry): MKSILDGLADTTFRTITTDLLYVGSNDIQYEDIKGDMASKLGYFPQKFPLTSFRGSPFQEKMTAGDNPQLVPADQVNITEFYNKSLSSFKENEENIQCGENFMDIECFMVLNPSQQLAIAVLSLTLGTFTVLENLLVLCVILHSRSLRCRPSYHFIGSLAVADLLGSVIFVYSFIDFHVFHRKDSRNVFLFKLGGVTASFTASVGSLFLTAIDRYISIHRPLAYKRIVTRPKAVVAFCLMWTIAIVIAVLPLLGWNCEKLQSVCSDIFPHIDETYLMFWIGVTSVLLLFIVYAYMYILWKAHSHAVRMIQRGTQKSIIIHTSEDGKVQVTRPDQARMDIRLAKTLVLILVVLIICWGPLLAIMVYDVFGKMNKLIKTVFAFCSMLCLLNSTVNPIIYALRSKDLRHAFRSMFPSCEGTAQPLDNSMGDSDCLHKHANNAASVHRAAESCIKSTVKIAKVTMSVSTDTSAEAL
Description: (§1) The binding affinity of the herein described compounds toward the human CB2R was determined by a competitive radioligand binding assay according to the established in-house protocol using cell homogenates obtained from CHO cells stably transfected with hCB2R (hCB2R-CHO).[53],[73] For compounds binding with high affinity to hCB2R, the affinity toward CB1R was determined as well by radioligand displacement studies performed either with homogenates obtained from the mouse brain or hCB1R-CHO cells.
(§2) The binding affinities toward hCB1R and hCB2R were determined according to a previously published protocol.[22] In brief, membrane preparations obtained from CHO cell lines stably transfected with either human CB1R (hCB1R-CHO; obtained from Euroscreen, Gosselies, Belgium) or human CB2R (hCB2R-CHO; obtained from Paul L. Prather, Department of Pharmacology and Toxicology, College of Medicine, University of Arkansas for Medical Sciences, USA) were incubated with [^3H]SR141716A (1,554 GBq/mmol; PerkinElmer Life and Analytical Sciences, Rodgau, Germany; final concentration ∼2 nM) or [^3H]WIN55212-2 (6,438 GBq/mmol; PerkinElmer Life and Analytical Sciences, Rodgau, Germany; final concentration ∼3 nM) and the respective test compounds at different concentrations (final concentration 10^–5–10^–11 M) diluted from DMSO stock solutions (1% DMSO final concentration) in incubation buffer (50 mM TRIS-HCl, pH 7.4, supplemented with 0.1% bovine serum albumin, 5 mM MgCl2, and 1 mM EDTA) at rt for 90 min.
(§3) The nonspecific binding of the respective radioligand was determined by coincubation with CP55,940 (final concentration 10^–5 M). The normalized values of bound activity (% specific binding) were calculated and plotted vs the logarithm of the concentration of the respective test compound. The IC50 values of the resulting inhibition curves were estimated by nonlinear regression analysis (GraphPad Prism 2.01). To calculate the Ki, the equation of Cheng and Prusoff was used. For homologous competition experiments, Ki = KD.[38]

[2] = target: T2, hCB2R (Homo sapiens, UniProt P34972); assay: Competitive radioligand binding assay, displacement of [3H]WIN55212-2 from homogenates of hCB2R-CHO cells; details: for Ki: read-out: CB2R Ki; for CB2R binding affinity, in words: hCB2R, discussion of Table 1
T2 construct: host or cells: CHO cells, stably transfected
T2 sequence (P34972 whole entry): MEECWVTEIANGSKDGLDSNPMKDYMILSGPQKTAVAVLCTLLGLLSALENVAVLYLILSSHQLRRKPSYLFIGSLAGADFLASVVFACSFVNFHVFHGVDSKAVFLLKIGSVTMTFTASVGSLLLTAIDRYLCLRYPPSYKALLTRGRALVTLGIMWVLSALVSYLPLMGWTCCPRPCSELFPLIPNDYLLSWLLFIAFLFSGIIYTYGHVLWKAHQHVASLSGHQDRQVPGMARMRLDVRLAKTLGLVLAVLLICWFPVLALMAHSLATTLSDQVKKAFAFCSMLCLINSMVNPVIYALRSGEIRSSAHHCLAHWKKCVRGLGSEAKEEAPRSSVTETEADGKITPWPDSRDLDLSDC
Description: as §1, §2, §3

[3] = target: CB2R; details: cited from earlier work
[4] = target: T3, hCB2R(D80N) (Homo sapiens, UniProt P34972, D80N); set-up: method as in earlier work; details: same animal model, previously evaluated; ref 83 ([18F]LU14), 31 ([18F]LU13); cited from earlier work
T3 construct: expressed in transfected cells; host or cells: neurons of the right striatum of male Wistar rats, transduced in vivo with the AAV2/7-CaMKII0.4-intron-hCB2R(D80N) vector
T3 sequence (P34972 whole entry D80N): as the sequence (P34972 whole entry) above, with D80N counted along it

[5] = hCB1R-CHO homogenates, displacement of [3H]SR141716A, read-out: CB1R Ki
[6] = hCB2R-CHO homogenates, displacement of [3H]WIN55.2212-2
[7] = enantiomer obtained by chiral HPLC separation (Scheme 1), hCB2R-CHO, [3H]WIN55.2212-2
[8] = Figure 1, ref 28 (DM102), 29, 30 (RoSMA-18-d6), 31 (LU13), 33 (LUZ5-d8)
[9] = Figure 1, ref 28 (DM102), 29, 30 (RoSMA-18-d6), 31 (LU13), 33 (LUZ5-d8), read-out: KiCB2R

Compound | Ki [1, 5] [nM] | Ki [2, 6] [nM] | CB2R binding affinity, in words [2] | further results
CC1(C)Cc2ccc(C#N)cc2C1NC(=O)c1cc2cc(F)ccc2[nH]1 (racemic) [Compound (±)-6, (rac)-N-(6-Cyano-2,2-dimethyl-2,3-dihydro-1H-inden-1-yl)-5-fluoro-1H-indole-2-carboxamide] | 842 | 3 |  | 
CC1(C)Cc2ccc(C#N)cc2[C@@H]1NC(=O)c1cc2c(F)cccc2[nH]1 [Compound 19A, (R)-N-(6-Cyano-2,2-dimethyl-2,3-dihydro-1H-inden-1-yl)-4-fluoro-1H-indole-2-carboxamide] | > 1000 | 3.41 |  | 
CC1(C)Cc2ccc(C#N)cc2[C@@H]1NC(=O)c1cc2ccc(F)cc2[nH]1 [Compound 19B, (R)-N-(6-Cyano-2,2-dimethyl-2,3-dihydro-1H-inden-1-yl)-6-fluoro-1H-indole-2-carboxamide] | > 1000 | 15.9 |  | 
CC1(C)Cc2ccc(C#N)cc2[C@@H]1NC(=O)c1cc2cc(OCCF)ccc2[nH]1 [Compound 19D, (R)-N-(6-Cyano-2,2-dimethyl-2,3-dihydro-1H-inden-1-yl)-5-(2-fluoroethoxy)-1H-indole-2-carboxamide] | > 1000 | 29.9 ± 3.39 | slightly decreased the affinity | 
CC1(C)Cc2ccc(C#N)cc2[C@@H]1NC(=O)c1cc2cc(OCCCF)ccc2[nH]1 [Compound 19E, (R)-N-(6-Cyano-2,2-dimethyl-2,3-dihydro-1H-inden-1-yl)-5-(3-fluoropropoxy)-1H-indole-2-carboxamide] | > 100 | 15.6 ± 3.85 | slightly decreased the affinity | Ki ([1]; supplement, formula strings sheet, read-out: CB1RKi): > 1000 nM
Cc1c(C(=O)N[C@H]2c3cc(C#N)ccc3CC2(C)C)[nH]c2ccc(F)cc12 [Compound 19F, (R)-N-(6-Cyano-2,2-dimethyl-2,3-dihydro-1H-inden-1-yl)-5-fluoro-3-methyl-1H-indole-2-carboxamide] | > 100 | 336 | deleterious effect on the binding affinity | 
CC1(C)Cc2ccc(C#N)cc2[C@@H]1NC(=O)c1nc2cc(F)ccc2[nH]1 [Compound 19G, (R)-N-(6-Cyano-2,2-dimethyl-2,3-dihydro-1H-inden-1-yl)-5-fluoro-1H-benzo[d]imidazole-2-carboxamide] | > 100 | 7.18 | high CB2R affinity | 
CC1(C)Cc2ccc(C#N)cc2[C@@H]1NC(=O)c1cc2cc(F)ccc2s1 [Compound 19H, (R)-N-(6-Cyano-2,2-dimethyl-2,3-dihydro-1H-inden-1-yl)-5-fluorobenzo[b]thiophene-2-carboxamide] | > 100 | 6.98 ± 3.43 | high CB2R affinity | 
CC1(C)Cc2ccc(OCCF)cc2[C@@H]1NC(=O)c1cc2cc(F)ccc2[nH]1 [Compound 21A, (R)-5-Fluoro-N-(6-(2-fluoroethoxy)-2,2-dimethyl-2,3-dihydro-1H-inden-1-yl)-1H-indole-2-carboxamide] | > 100 | 50 | slightly reduced affinity | 
CC1(C)Cc2ccc(OCCCF)cc2[C@@H]1NC(=O)c1cc2cc(F)ccc2[nH]1 [Compound 21B, (R)-5-Fluoro-N-(6-(3-fluoropropoxy)-2,2-dimethyl-2,3-dihydro-1H-inden-1-yl)-1H-indole-2-carboxamide] | > 1000 | 78.1 | slightly reduced affinity | 
CC1(C)Cc2ccc(C(N)=O)cc2[C@@H]1NC(=O)c1cc2cc(F)ccc2[nH]1 [Compound 21C, (R)-N-(6-Carbamoyl-2,2-dimethyl-2,3-dihydro-1H-inden-1-yl)-5-fluoro-1H-indole-2-carboxamide] | > 1000 | > 1000 |  | 
CC12CCC(C1)C(C)(C)C2NC(=O)c1cc2cc(F)ccc2[nH]1 (stereo not shown) [Compound 21D] | > 1000 | > 1000 | loss of CB2R binding | 
O=C(NC12CC3CC(CC(C3)C1)C2)c1cc2cc(F)ccc2[nH]1 [Compound 21E, N-(Adamantan-1-yl)-5-fluoro-1H-indole-2-carboxamide] | > 1000 | > 1000 | loss of CB2R binding | 
CC1(C)Cc2ccc(C#N)cc2C1NC(=O)c1cc2cc(F)ccc2[nH]1 (stereo not drawn) [Compound (+)-6] | > 1000 |  | inactive; also recorded: no binding | Ki [2, 7]: > 1000 nM
CC1(C)Cc2ccc(C#N)cc2[C@@H]1NC(=O)c1cc2cc(F)ccc2[nH]1 [Compound (–)-6, (R)-N-(6-Cyano-2,2-dimethyl-2,3-dihydro-1H-inden-1-yl)-5-fluoro-1H-indole-2-carboxamide] |  |  | binding affinity in the same range | Ki ([1]; compound obtained by enantioselective synthesis (Scheme 2), hCB1R-CHO, [3H]SR141716A, read-out: CB1R Ki): 965 nM; Ki ([1]; enantiomer obtained by chiral HPLC separation (Scheme 1), hCB1R-CHO, [3H]SR141716A, read-out: CB1R Ki): 827 nM; Ki ([3]; reported value, read-out: CB2R Ki): 0.24 nM; selectivity over CB1R (factor) ([2]; CB2R over CB1R): > 300; Ki ([2]; compound obtained by enantioselective synthesis (Scheme 2), hCB2R-CHO, [3H]WIN55.2212-2): 3.53 nM; Ki [2, 7]: 2.1 nM and 2.19 nM
CC1(C)C(C(=O)c2cn(CCC[18F])c3ccccc23)C1(C)C [[^18F]DM102] |  |  |  | KiCB1R/KiCB2R [3, 8]: 440; Ki [3, 9]: 7.8 nM
[2H]C([2H])([18F])C([2H])([2H])C([2H])([2H])C([2H])([2H])n1c(=O)c(C(=O)NC23CC4CC(CC(C4)C2)C3)cc2cccnc21 [[^18F]LU13] |  |  |  | KiCB1R/KiCB2R [3, 8]: > 1000; Ki [3, 9]: 0.6 nM; TAC peak SUV in target region [4]: 3.6
[2H]C([2H])([18F])C([2H])([2H])C([2H])([2H])OC(=O)C(CC)(CC)NC(=O)c1ccc(N2CC(OC)C2)c(OC[C@H]2C[C@@H]2CO)n1 [[^18F]RoSMA-18-d6] |  |  |  | KiCB1R/KiCB2R [3, 8]: > 10000; Ki [3, 9]: 0.8 nM
(R)-N-(6-Cyano-2,2-dimethyl-2,3-dihydro-1H-inden-1-yl)-6-fluoro-1H-indole-2-carboxamide [Compound 19C] | > 1000 | 6.49 |  | 
